One series addresses T1, hIBAT (Homo sapiens, UniProt Q12908).
T1 construct: expressed in transfected cells; kept under Puromycin selection
T1 sequence (Q12908 1-348): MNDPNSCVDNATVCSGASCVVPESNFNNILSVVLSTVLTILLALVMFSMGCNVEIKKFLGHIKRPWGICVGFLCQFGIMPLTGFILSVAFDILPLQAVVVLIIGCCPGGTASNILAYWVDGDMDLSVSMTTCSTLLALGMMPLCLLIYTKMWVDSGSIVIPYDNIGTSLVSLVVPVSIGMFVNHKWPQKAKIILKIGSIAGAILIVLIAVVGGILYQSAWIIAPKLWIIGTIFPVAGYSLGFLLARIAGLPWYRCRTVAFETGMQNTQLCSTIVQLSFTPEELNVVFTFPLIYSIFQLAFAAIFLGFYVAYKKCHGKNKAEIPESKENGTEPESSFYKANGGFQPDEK
As to the kind of experiment: IBAT (h/m) assay, 3H-taurocholic acid uptake in human IBAT-overexpressing cells. The series is classed as cell-based. The following applies: 0.25 μM 3H-taurocholic acid and 5 μM cold taurocholic acid, 20 minutes. The method, then: 10,000 cells (Human or Mouse IBAT-overexpressing cells) were seeded in 96-wells plate (Corning CLS3809) in 200 μL MEM-alpha medium (Gibco 12571-063) supplemented with 10% FBS (Gibco 10438026) containing Puromycin (Gibco A1113803) (10 μg/mL) and incubated at 37° C. in 5% CO2 for 48 hours. After incubation, media was decanted from the wells and cells were washed two times with 300 μL of basal MEM-alpha medium (FBS-free). After decanting basal MEM-alpha medium each time, plates were tapped against paper towel to ensure maximum removal of residual media. Test inhibitor dilutions (highest test concentration being 10 μM, 3-fold serial dilution, 10 points) prepared in DMSO (Sigma D2650) were added in incubation mix (maintaining 0.2% final DMSO concentration) containing 0.25 μM 3H-taurocholic acid (ARC ART-1368) and 5 μM of cold taurocholic acid (Sigma T4009). 50 μL of incubation mix containing test inhibitors was then added to the wells (in duplicate) and the plates were incubated for 20 minutes in a CO2 incubator at 37° C. After incubation, the reaction was stopped by keeping the plates on ice water mix for 2-3 minutes and then the incubation mix was aspirated completely from the wells. The wells were washed two times with 250 μL of chilled unlabelled 1 mM taurocholic acid dissolved in HEPES (Gibco 15630080)-buffered (10 mM) HBSS (Gibco 14175079) (pH 7.4). The plates were tapped against a paper towel after every wash to ensure maximum removal of blocking buffer.
100 μL of MicroScint-20 (PerkinElmer 6013621) was added to the wells and kept overnight at room temperature before reading the plates in TopCount NXT™ Microplate Scintillation and Luminescence Counter from PerkinElmer under 3H Test protocol (set at 120 seconds reading time per well).
(§1) All test compounds were provided in powder form at room temperature. 10 mM DMSO stocks of the test compounds were prepared, aliquoted and stored at −20° C. From the 10 mM DMSO stock of the compounds, a 3-fold serial dilution in DMSO was prepared to get a total of 10 dilutions of the test compounds. 0.5 μL of this dilution in DMSO was added to 250 μL of FBS-free basal media containing 3H-taurocholic acid and cold taurocholic acid to prepare the incubation mixture.

For a further series, the target named is T2, hLBAT (Homo sapiens, UniProt Q14973).
T2 construct: expressed in transfected cells; kept under Geneticin selection
T2 sequence (Q14973 1-349): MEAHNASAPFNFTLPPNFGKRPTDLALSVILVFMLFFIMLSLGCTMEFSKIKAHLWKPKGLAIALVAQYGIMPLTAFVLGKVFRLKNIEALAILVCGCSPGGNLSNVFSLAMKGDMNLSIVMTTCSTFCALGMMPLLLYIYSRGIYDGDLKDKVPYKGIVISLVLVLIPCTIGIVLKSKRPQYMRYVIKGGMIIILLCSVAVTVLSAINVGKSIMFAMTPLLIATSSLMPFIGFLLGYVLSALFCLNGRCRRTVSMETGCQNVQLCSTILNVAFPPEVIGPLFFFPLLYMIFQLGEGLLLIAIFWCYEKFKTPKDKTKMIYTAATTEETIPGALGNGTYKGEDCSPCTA
The series is described as follows: LBAT (h/m) assay, 3H-taurocholic acid uptake in human LBAT-overexpressing cells. In kind it is cell-based. The following applies: 0.3 μM 3H-taurocholic acid and 7.5 μM cold taurocholic acid, 20 minutes. The protocol:
20,000 cells (Human or Mouse LBAT-overexpressing cells) were seeded in 96-wells plate (Corning CLS3809) in 100 μL MEM-alpha medium (Gibco 12571-063) supplemented with 10% FBS (Gibco 10438026) containing Geneticin (Gibco 10131-027) (1 mg/mL) and incubated at 37° C. in 5% CO2 for 24 hours. After incubation, media was decanted from the wells and cells were washed two times with 300 μL of basal MEM-alpha medium (FBS-free). After decanting basal MEM-alpha medium each time, plates were tapped against paper towel to ensure maximum removal of residual media. For human LBAT, incubation mix was prepared by adding test inhibitor dilutions (3-fold serial dilution in DMSO (Sigma D2650), 10 points) in MEM-alpha (without FBS) containing 0.3 μM 3H-taurocholic acid (ARC ART-1368) and 7.5 μM cold taurocholic acid (Sigma T4009) (maintaining 0.2% final DMSO concentration). For mouse LBAT, incubation mix was prepared by adding test inhibitor dilutions (3-fold serial dilution in DMSO, 10 points) in MEM-alpha (without FBS) containing 0.3 μM 3H-taurocholic acid and 25 μM cold taurocholic acid maintaining 0.2% final DMSO concentration). 50 μL of incubation mix containing test inhibitors was then added to the wells (in duplicate) and the plates were incubated for 20 minutes in a CO2 incubator at 37° C. After incubation, the reaction was stopped by keeping the plates on ice water mix for 2-3 minutes and then the incubation mix was aspirated completely from the wells. The wells were washed two times with 250 μL of chilled unlabelled 1 mM taurocholic acid dissolved in HEPES (Gibco 15630080)-buffered (10 mM) HBSS (Gibco 14175079) (pH 7.4). The plates were tapped against a paper towel after every wash to ensure maximum removal of blocking buffer.
100 μL of MicroScint-20 (PerkinElmer 6013621) was added to the wells and kept overnight at room temperature before reading the plates in TopCount NXT™ Microplate Scintillation and Luminescence Counter from PerkinElmer under 3H Test protocol (set at 120 seconds reading time per well, with normal plate orientation).
as §1

The nature of series [1]: Bidirectional permeability assay (Caco-2 cells). To be noted: human, Caco-2.
Protocol: Caco-2 cells (Evotec) were seeded at a density of 70,000 cells/well in Millicell® 24-well cell culture insert plates and maintained in an incubator (37° C., 5% CO2, 95% RH) for 21 days with media change on alternate days.
Stock solutions (10 mM) of the test compounds, atenolol (low permeability marker), propranolol (high permeability marker) and digoxin (substrate for P-gp transport pathway) were prepared in dimethylsulfoxide (DMSO). An intermediate stock solution (1 mM) was prepared by diluting 10 μL of 10 mM master stock solution with 90 μL of neat DMSO. A working stock solution (10 μM) was prepared by diluting 50 μL of 1 mM with 4950 μL of FaSSIF buffer. Post addition of compounds to the FaSSIF, samples were subjected to sonication for 2 hours, and centrifuged at 4000 RPM for 30 minutes at 37° C. The 4 mL of resultant supernatant was directly used in the assay. The final DMSO concentration in the transport experiments was 1%.
On the day of assay, Caco-2 monolayers were washed twice with transport buffer (HBSS, pH 7.4) and pre-incubated for 30 min (37° C., 5% CO2, 95% RH) in an incubator. The electrical resistance of the monolayers was measured with a Millicell®—ERS system. Monolayers with trans-epithelial electrical resistance (TEER) values greater than 350 ohm·cm^2 were selected for the assay.
The assay was conducted in absorptive direction (A2B) and secretory (B2A) directions. Transport experiments were initiated by addition of transport assay buffer (FaSSIF buffer prepared in HBSS) consisting of compounds to the donor compartment (apical chamber A-B; basolateral chamber B-A) in duplicate (n=2) wells. Drug free HBSS buffer (pH 7.4) containing 1% bovine serum albumin (BSA) was introduced to the receiver (A-B-basolateral; B-A-Apical) compartments. The volumes of apical and basolateral compartments were 0.4 and 0.8 mL, respectively. After adding dosing solution, plates were incubated in an incubator for 120 minutes at 37° C. After 120 minutes, donor and receiver samples were collected and matrix matched (1:1, 30 μL study sample+30 μL blank buffer) with the opposite buffer. Dosing samples matrix matched (1:1, 30 μL study sample+30 μL blank buffer) with the opposite buffer. Samples were processed by adding acetonitrile containing internal standard (60 μL study sample+200 μL acetonitrile containing internal standard—Tolbutamide, 500 ng/mL). Samples were vortexed and centrifuged at 4000 rpm for 10 minutes. The obtained supernatant (100 μL) was diluted with 100 μL of water and transferred to fresh 96 well plates. The concentration of compounds in the samples was analyzed by liquid chromatography tandem mass spectrometry (LC-MS/MS) method using discovery grade bio-analytical method, as applicable.
The mean apparent permeability (Papp, ×10^−6 cm/sec) of the test compounds, atenolol, propranolol and digoxin were calculated as follows:

As a reminder, the IC50 is the midpoint of a concentration-inhibition curve. Read a low IC50 as greater potency in that assay. Molecule `CCCC[C@@]1(CC)CN(c2ccccc2)c2cc(N(C)C)c(O/C=C/C(=O)O)cc2S(=O)(=O)N1.CCCC[C@]1(CC)CN(c2ccccc2)c2cc(N(C)C)c(O/C=C/C(=O)O)cc2S(=O)(=O)N1` (mixture of isomers) [Example 15, (S)-(E)-3-((3-butyl-7-(dimethylamino)-3-ethyl-1,1-dioxido-5-phenyl-2,3,4,5-tetrahydro-1,2,5-benzothiadiazepin-8-yl)oxy)acrylic acid and (R)-(E)-3-((3-butyl-7-(dimethylamino)-3-ethyl-1,1-dioxido-5-phenyl-2,3,4,5-tetrahydro-1,2,5-benzothiadiazepin-8-yl)oxy)acrylic acid] came in with a half-maximal inhibitory concentration (IC50) at hIBAT of 0.066 µM.

For `CCC[C@@]1(CC)CN(c2ccccc2)c2cc(SC)c(O/C=C(\F)C(=O)O)cc2S(=O)(=O)C1.CCC[C@]1(CC)CN(c2ccccc2)c2cc(SC)c(O/C=C(\F)C(=O)O)cc2S(=O)(=O)C1` (mixture of isomers) [Example 18, (S)—(Z)-3-((3-ethyl-7-(methylthio)-1,1-dioxido-5-phenyl-3-propyl-2,3,4,5-tetrahydro-1,5-benzothiazepin-8-yl)oxy)-2-fluoroacrylic acid and (R)—(Z)-3-((3-ethyl-7-(methylthio)-1,1-dioxido-5-phenyl-3-propyl-2,3,4,5-tetrahydro-1,5-benzothiazepin-8-yl)oxy)-2-fluoroacrylic acid], the 50% inhibitory concentration (IC50) against hLBAT turned out to be 0.038 µM; against hIBAT, 0.337 µM.

Consider `CCC[C@@]1(CC)CN(c2ccccc2)c2cc(SC)c(O/C=C(\F)C(=O)O)cc2S(=O)(=O)C1.CCC[C@]1(CC)CN(c2ccccc2)c2cc(SC)c(O/C=C(\F)C(=O)O)cc2S(=O)(=O)C1` (mixture of isomers) [Example 19, (S)—(Z)-3-((3-ethyl-7-(methylthio)-1,1-dioxido-5-phenyl-3-propyl-2,3,4,5-tetrahydro-1,5-benzothiazepin-8-yl)oxy)-2-fluoroacrylic acid and (R)—(Z)-3-((3-ethyl-7-(methylthio)-1,1-dioxido-5-phenyl-3-propyl-2,3,4,5-tetrahydro-1,5-benzothiazepin-8-yl)oxy)-2-fluoroacrylic acid], for which the IC50 on hLBAT is 0.005 µM; on hIBAT, 0.283 µM.

One may read the Papp A→B as the apparent permeability from the apical to the basolateral side of a cell layer. A lower Papp A→B goes with slow passage. Broadly, the Papp B→A is how fast a substance crosses the layer from the basolateral side. `CCCCC1(CCCC)CN(c2ccc(F)cc2)c2cc(SC)c(O/C=C(\F)C(=O)O)cc2S(=O)(=O)C1` [Example 1, (Z)-3-((3,3-dibutyl-5-(4-fluorophenyl)-7-(methylthio)-1,1-dioxido-2,3,4,5-tetrahydro-1,5-benzothiazepin-8-yl)oxy)-2-fluoroacrylic acid] showed an IC50 against hLBAT of 0.049 µM. Besides, in series [1], the Papp A→B at 120 min, 10 µM was 0.9 ×10⁻⁶ cm/s and the Papp B→A at 120 min, 10 µM is 0.9 ×10⁻⁶ cm/s. For the same molecule, inhibition on hIBAT was half-maximal at 0.021 µM (IC50).

Consider `CCCCC1(CC)CN(c2ccc(F)cc2)c2cc(SC)c(O/C=C/C(=O)O)cc2S(=O)(=O)C1` (centres unmarked) [Example 8, (E)-3-((3-butyl-3-ethyl-5-(4-fluorophenyl)-7-(methylthio)-1,1-dioxido-2,3,4,5-tetrahydro-1,5-benzothiazepin-8-yl)oxy)acrylic acid], for which the IC50 was determined as 0.118 µM on hLBAT and 0.007 µM against hIBAT.

Turning to `CCCC1(CC)CN(c2ccccc2)c2cc(SC)c(O/C=C/C(=O)O)cc2S(=O)(=O)C1` (centres unmarked) [Example 11, (E)-3-((3-ethyl-7-(methylthio)-1,1-dioxido-5-phenyl-3-propyl-2,3,4,5-tetrahydro-1,5-benzothiazepin-8-yl)oxy)acrylic acid], the values for the IC50 against hLBAT and against hIBAT were 0.097 µM and 0.26 µM, respectively.

In the case of `CCC1(C(C)C)CN(c2ccccc2)c2cc(SC)c(O/C=C/C(=O)O)cc2S(=O)(=O)C1` (centres unmarked) [Example 16, (E)-3-((3-ethyl-3-isopropyl-7-(methylthio)-1,1-dioxido-5-phenyl-2,3,4,5-tetrahydro-1,5-benzothiazepin-8-yl)oxy)acrylic acid], the IC50 at hLBAT is 0.218 µM; on hIBAT it was 0.565 µM.

As to `CCC1(C(C)C)CN(c2ccccc2)c2cc(SC)c(O/C=C(\F)C(=O)O)cc2S(=O)(=O)C1` (centres unmarked) [Example 17, (Z)-3-((3-ethyl-3-isopropyl-7-(methylthio)-1,1-dioxido-5-phenyl-2,3,4,5-tetrahydro-1,5-benzothiazepin-8-yl)oxy)-2-fluoroacrylic acid], the IC50 stood at 0.017 µM against hLBAT and 0.378 µM on hIBAT.

On to “(S)-(E)-3-((3-butyl-3-ethyl-5-(4-fluorophenyl)-7-(methylthio)-1,1-dioxido-2,3,4,5-tetrahydro-1,5-benzothiazepin-8-yl)oxy)acrylic acid and (R)-(E)-3-((3-butyl-3-ethyl-5-(4-fluorophenyl)-7-(methylthio)-1,1-dioxido-2,3,4,5 tetrahydro-1,5-benzothiazepin-8-yl)oxy)acrylic acid [Example 9]”, for which the IC50 at hLBAT was found to be 0.15 µM; against hIBAT, 0.151 µM.

As to “(S)—(Z)-3-((3-butyl-3-ethyl-5-(4-fluorophenyl)-7-(methylthio)-1,1-dioxido-2,3,4,5-tetrahydro-1,5-benzothiazepin-8-yl)oxy)-2-fluoroacrylic acid and (R)—(Z)-3-((3-butyl-3-ethyl-5-(4-fluorophenyl)-7-(methylthio)-1,1-dioxido-2,3,4,5-tetrahydro-1,5-benzothiazepin-8-yl)oxy)-2-fluoroacrylic acid [Example 6]”, the IC50 was 0.012 µM on hLBAT and 0.066 µM on hIBAT.

In the case of “(S)—(Z)-3-((3-butyl-7-(dimethylamino)-3-ethyl-1,1-dioxido-5-phenyl-2,3,4,5-tetrahydro-1,2,5-benzothiadiazepin-8-yl)oxy)-2-fluoroacrylic acid and (R)—(Z)-3-((3-butyl-7-(dimethylamino)-3-ethyl-1,1-dioxido-5-phenyl-2,3,4,5-tetrahydro-1,2,5-benzothiadiazepin-8-yl)oxy)-2-fluoroacrylic acid [Example 4]”, the IC50 was 0.077 µM against hLBAT and 0.091 µM against hIBAT.

These data come from patent publication US11267794B2, “Benzothia(di)azepine compounds and their use as bile acid modulators” (Albireo AB, priority 2019, dated 2022).
